Source: paper PMC8371461 (Frontiers in Pharmacology, 2021)

Assays:
[1] = molecular target: T1, RSK4(Kin.Dom.1-N-terminal) (Homo sapiens, UniProt Q9UK32); assay: kinome scan; type: binding; details: 10 µM
T1 construct: RSK4(Kin.Dom.1-N-terminal); purchased DiscoverX (KINOMEscan)

NDR2 = molecular target: T2, NDR2 (Homo sapiens, UniProt Q9Y2H1); assay: kinome scan; type: binding; details: 10 µM
T2 construct: purchased DiscoverX (KINOMEscan)

[2] = molecular target: T3, ABL1(F317I)-nonphosphorylated (Homo sapiens, UniProt P00519, F317I); assay: kinome scan; type: binding; details: 10 µM
T3 construct: purchased DiscoverX (KINOMEscan)

PIK3CA(Q546K) = molecular target: T4, PIK3CA(Q546K) (Homo sapiens, UniProt P42336, Q546K); assay: kinome scan; type: binding; details: 10 µM
T4 construct: purchased DiscoverX (KINOMEscan)

CDC2L5 = molecular target: T5, CDC2L5 (Homo sapiens, UniProt Q14004); assay: kinome scan; type: binding; details: 10 µM
T5 construct: purchased DiscoverX (KINOMEscan)
Experimental: (§1) The kinome scan analysis was performed using the DiscoverX platform (www.discoverx.com). Briefly, T7 kinase-tagged phage strains are grown in parallel in 24-well or 96-well blocks in a BL21-derived E. coli host for 90 min until lysis. Lysates are centrifuged at 6,000 x g and filtered with a 0.2 µm filter to remove cell debris. Streptavidin-coated magnetic beads are treated with biotinylated kinase ligands for 30 min at room temperature to generate the affinity resin. Bound beads are blocked with excess biotin and washed with blocking buffer (SeaBlock (Pierce), 1% BSA, 0.05% Tween 20, and 1 mM DTT) to remove unbound ligand and reduce nonspecific phage binding. […] The final concentration of test compound is 10 µM. Assay plates are incubated at room temperature with shaking for 1 h. Affinity beads are treated four times with washing buffer (1X PBS, 0.05% Tween 20, and 1 mM DTT) to remove unbound phage. […] Q RT PCR is used to measure the amount of phage in each eluate (which is proportional to the amount of kinase bound). Data is presented as the percentage of kinase bound by 10 µM of the ligand compared to the DMSO only as a control.
(§2) Hits are identified by an ultra-sensitive quantitative PCR detecting the specific DNA tag linked to each kinase (Supplementary Figure S2). The drug is used at a concentration of 10 µM and results are expressed as the percentage of signal (kinase PCR detection) with respect to DMSO control conditions. Thirteen hits were identified, with a signal reduction ranging from 0 to 27% (Table 3). Full raw data are presented in Supplementary Table S4. Interactions between 0 and 20% of reduction were considered to be the most significant ones. […] A sub-micromolar affinity (Kd<1 µM) was only seen with two PIKs (PIP4K2C, PI4KB) and GAK (Table 4). Inhibitions curves from these compounds are shown in Supplementary Figure S3.

PRP4 = molecular target: T6, PRP4 (Homo sapiens, UniProt Q13523); assay: kinome scan; type: binding; details: 10 µM
T6 construct: purchased DiscoverX (KINOMEscan)
T6 sequence (Q13523 whole entry): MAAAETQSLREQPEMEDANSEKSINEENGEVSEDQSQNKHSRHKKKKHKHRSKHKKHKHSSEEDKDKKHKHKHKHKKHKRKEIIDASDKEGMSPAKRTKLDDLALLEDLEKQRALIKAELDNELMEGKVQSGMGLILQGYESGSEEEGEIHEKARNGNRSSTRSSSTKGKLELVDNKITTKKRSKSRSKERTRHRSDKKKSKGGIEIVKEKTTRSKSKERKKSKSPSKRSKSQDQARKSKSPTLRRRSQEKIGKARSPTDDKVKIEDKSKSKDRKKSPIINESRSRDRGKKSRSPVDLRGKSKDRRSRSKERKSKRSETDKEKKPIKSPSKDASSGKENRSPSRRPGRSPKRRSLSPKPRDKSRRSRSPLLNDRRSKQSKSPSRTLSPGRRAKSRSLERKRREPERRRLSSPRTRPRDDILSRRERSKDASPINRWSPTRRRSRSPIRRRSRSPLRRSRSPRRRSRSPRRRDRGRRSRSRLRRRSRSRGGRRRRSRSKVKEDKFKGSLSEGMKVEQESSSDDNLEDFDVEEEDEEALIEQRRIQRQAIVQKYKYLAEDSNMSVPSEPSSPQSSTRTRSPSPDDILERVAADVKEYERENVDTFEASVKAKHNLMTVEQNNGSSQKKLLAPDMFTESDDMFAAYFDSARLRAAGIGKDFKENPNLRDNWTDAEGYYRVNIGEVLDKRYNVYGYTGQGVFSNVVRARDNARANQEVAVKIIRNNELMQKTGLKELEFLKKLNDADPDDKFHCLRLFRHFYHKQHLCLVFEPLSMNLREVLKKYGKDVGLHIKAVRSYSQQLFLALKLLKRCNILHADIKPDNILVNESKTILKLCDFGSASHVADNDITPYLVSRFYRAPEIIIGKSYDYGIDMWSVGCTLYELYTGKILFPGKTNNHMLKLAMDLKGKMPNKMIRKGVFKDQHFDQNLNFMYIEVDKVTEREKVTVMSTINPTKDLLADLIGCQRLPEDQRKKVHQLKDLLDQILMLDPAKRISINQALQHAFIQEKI
Experimental: as §1, §2

PFCDPK1(P.falciparum) = molecular target: T7, PFCDPK1(P.falciparum) (Plasmodium falciparum, UniProt P62344); assay: kinome scan; type: binding; details: 10 µM
T7 construct: purchased DiscoverX (KINOMEscan)
Experimental: as §1, §2

PFPK5(P.falciparum) = molecular target: T8, PFPK5(P.falciparum) (Plasmodium falciparum, UniProt P61075); assay: kinome scan; type: binding; details: 10 µM
T8 construct: purchased DiscoverX (KINOMEscan)
Experimental: as §1, §2

MELK = molecular target: T9, MELK (Homo sapiens, UniProt Q14680); assay: kinome scan; type: binding; details: 10 µM
T9 construct: purchased DiscoverX (KINOMEscan)
T9 sequence (Q14680 whole entry): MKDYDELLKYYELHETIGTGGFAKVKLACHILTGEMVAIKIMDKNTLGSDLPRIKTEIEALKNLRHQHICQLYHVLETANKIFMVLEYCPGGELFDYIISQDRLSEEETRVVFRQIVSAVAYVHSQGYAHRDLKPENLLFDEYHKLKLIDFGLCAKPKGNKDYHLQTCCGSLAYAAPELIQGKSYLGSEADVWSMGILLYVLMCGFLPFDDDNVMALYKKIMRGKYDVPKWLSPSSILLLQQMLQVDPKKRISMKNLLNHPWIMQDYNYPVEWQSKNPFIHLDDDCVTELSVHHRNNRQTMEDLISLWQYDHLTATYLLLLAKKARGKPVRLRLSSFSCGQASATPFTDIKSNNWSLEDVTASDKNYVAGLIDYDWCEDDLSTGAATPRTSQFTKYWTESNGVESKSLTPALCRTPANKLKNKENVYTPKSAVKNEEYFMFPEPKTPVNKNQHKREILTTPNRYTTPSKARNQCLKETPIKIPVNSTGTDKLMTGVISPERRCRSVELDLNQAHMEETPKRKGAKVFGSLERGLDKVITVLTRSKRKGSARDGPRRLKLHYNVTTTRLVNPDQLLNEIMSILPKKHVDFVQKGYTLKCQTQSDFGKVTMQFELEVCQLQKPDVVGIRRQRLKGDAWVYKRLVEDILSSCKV

IKK-alpha = molecular target: T10, IKK-alpha (Homo sapiens, UniProt O15111); assay: kinome scan; type: binding; details: 10 µM
T10 construct: purchased DiscoverX (KINOMEscan)

LCK = molecular target: T11, LCK (Homo sapiens, UniProt P06239); assay: kinome scan; type: binding; details: 10 µM
T11 construct: purchased DiscoverX (KINOMEscan)
T11 sequence (P06239 whole entry): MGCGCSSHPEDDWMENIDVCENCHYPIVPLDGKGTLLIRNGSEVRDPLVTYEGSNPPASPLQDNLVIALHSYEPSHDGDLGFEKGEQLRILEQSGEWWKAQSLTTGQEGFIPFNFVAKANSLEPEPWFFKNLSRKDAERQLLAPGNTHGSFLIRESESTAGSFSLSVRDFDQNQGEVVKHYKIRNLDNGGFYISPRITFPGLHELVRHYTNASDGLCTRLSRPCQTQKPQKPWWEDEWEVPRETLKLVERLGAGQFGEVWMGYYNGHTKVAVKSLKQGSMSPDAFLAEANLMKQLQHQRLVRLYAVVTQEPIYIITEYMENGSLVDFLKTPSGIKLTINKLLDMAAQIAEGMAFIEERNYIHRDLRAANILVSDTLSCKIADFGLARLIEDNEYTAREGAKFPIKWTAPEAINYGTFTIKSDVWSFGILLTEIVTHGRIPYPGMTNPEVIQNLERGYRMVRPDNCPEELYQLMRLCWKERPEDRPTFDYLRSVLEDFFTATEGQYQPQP

FLT1 = molecular target: T12, FLT1 (Homo sapiens, UniProt P17948); assay: kinome scan; type: binding; details: 10 µM
T12 construct: purchased DiscoverX (KINOMEscan)

ERK1 = molecular target: T13, ERK1 (Homo sapiens, UniProt P27361); assay: kinome scan; type: binding; details: 10 µM
T13 construct: purchased DiscoverX (KINOMEscan)

SIK = molecular target: T14, SIK (Homo sapiens, UniProt P57059); assay: kinome scan; type: binding; details: 10 µM
T14 construct: purchased DiscoverX (KINOMEscan)
T14 sequence (P57059 whole entry): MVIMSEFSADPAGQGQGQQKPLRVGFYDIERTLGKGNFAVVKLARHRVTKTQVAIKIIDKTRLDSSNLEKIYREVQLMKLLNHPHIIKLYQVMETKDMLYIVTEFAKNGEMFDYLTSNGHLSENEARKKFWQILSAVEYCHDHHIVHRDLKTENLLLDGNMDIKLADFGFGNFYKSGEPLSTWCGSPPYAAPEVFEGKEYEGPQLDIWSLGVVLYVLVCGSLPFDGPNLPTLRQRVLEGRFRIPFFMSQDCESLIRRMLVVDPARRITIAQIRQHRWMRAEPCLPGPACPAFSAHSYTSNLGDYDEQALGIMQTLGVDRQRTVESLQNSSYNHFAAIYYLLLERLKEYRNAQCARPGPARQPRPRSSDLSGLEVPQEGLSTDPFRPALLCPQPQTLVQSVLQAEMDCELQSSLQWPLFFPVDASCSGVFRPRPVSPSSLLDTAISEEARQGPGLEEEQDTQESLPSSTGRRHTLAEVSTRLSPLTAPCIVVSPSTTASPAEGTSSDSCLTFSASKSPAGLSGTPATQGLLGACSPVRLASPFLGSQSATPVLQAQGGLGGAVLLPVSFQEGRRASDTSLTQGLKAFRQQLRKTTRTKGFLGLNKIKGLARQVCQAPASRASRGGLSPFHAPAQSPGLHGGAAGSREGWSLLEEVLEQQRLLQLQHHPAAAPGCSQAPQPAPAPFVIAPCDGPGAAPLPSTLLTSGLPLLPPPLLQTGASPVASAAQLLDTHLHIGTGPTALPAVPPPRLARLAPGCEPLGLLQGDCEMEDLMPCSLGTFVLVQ

CAMK2D = molecular target: T15, CAMK2D (Homo sapiens, UniProt Q13557); assay: kinome scan; type: binding; details: 10 µM
T15 construct: purchased DiscoverX (KINOMEscan)

[3] = molecular target: T16, ABL1(H396P)-nonphosphorylated (Homo sapiens, UniProt P00519, H396P); assay: kinome scan; type: binding; details: 10 µM
T16 construct: purchased DiscoverX (KINOMEscan)

HeLa cells = assay: LC3B positive autophagosomes, immunofluorescent staining; type: cell-based; details: 10 µM, three days
Experimental: Cells were fixed with PBS containing 0.5% of para-formaldehyde for 15 min at room temperature. After three washing steps in PBS, cells were permeabilized with PBS containing 0.3% of Triton X-100 (Sigma) for 1 h at room temperature. After washing with PBS three times, cells were incubated overnight with the anti-LC3B antibody in PBS with 1% bovine serum albumin (Sigma) at 4°C. After three washing steps in PBS, cells were incubated with the fluorescent secondary antibody for 90 min at 4°C in PBS with 1% bovine serum albumin. They were then incubated with […] DAPI (Thermofisher) in PBS for 15 min. After washing with PBS, cells were rinsed once in water prior to mounting in the FluorSave reagent (Millipore).
Depending of these transitory environmental conditions, autophagy can either promote survival or apoptosis ([Degtyarev et al., 2008]). PIK/AKT pathway inhibition has been reported to increase cell autophagy ([Palmieri et al., 2017]). More specifically, PIP4K2C has been described as a down-regulator of autophagy ([Sharma et al., 2019]).

[4] = molecular target: T17, ABL1(F317L)-nonphosphorylated (Homo sapiens, UniProt P00519, F317L); assay: kinome scan; type: binding; details: 10 µM
T17 construct: purchased DiscoverX (KINOMEscan)

PRKR = molecular target: T18, PRKR (Homo sapiens, UniProt P19525); assay: kinome scan; type: binding; details: 10 µM
T18 construct: purchased DiscoverX (KINOMEscan)
T18 sequence (P19525 whole entry): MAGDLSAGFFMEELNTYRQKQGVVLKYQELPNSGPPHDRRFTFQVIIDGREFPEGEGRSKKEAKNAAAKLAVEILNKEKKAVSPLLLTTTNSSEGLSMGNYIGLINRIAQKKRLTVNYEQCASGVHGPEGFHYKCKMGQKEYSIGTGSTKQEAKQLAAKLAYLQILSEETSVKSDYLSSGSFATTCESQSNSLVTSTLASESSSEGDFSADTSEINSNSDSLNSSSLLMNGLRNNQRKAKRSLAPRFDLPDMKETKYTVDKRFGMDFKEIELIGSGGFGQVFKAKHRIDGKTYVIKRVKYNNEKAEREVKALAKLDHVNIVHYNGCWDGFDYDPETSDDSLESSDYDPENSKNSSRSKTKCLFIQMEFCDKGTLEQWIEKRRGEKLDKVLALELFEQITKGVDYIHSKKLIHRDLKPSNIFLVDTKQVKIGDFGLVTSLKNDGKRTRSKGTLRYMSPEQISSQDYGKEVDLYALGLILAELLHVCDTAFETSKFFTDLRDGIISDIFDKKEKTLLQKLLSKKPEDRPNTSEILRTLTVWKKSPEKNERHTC

PAK3 = molecular target: T19, PAK3 (Homo sapiens, UniProt O75914); assay: kinome scan; type: binding; details: 10 µM
T19 construct: purchased DiscoverX (KINOMEscan)

PRKCD = molecular target: T20, PRKCD (Homo sapiens, UniProt Q05655); assay: kinome scan; type: binding; details: 10 µM
T20 construct: purchased DiscoverX (KINOMEscan)

STK16 = molecular target: T21, STK16 (Homo sapiens, UniProt O75716); assay: kinome scan; type: binding; details: 10 µM
T21 construct: purchased DiscoverX (KINOMEscan)

MAP3K1 = molecular target: T22, MAP3K1 (Homo sapiens, UniProt Q13233); assay: kinome scan; type: binding; details: 10 µM
T22 construct: purchased DiscoverX (KINOMEscan)
T22 sequence (Q13233 whole entry): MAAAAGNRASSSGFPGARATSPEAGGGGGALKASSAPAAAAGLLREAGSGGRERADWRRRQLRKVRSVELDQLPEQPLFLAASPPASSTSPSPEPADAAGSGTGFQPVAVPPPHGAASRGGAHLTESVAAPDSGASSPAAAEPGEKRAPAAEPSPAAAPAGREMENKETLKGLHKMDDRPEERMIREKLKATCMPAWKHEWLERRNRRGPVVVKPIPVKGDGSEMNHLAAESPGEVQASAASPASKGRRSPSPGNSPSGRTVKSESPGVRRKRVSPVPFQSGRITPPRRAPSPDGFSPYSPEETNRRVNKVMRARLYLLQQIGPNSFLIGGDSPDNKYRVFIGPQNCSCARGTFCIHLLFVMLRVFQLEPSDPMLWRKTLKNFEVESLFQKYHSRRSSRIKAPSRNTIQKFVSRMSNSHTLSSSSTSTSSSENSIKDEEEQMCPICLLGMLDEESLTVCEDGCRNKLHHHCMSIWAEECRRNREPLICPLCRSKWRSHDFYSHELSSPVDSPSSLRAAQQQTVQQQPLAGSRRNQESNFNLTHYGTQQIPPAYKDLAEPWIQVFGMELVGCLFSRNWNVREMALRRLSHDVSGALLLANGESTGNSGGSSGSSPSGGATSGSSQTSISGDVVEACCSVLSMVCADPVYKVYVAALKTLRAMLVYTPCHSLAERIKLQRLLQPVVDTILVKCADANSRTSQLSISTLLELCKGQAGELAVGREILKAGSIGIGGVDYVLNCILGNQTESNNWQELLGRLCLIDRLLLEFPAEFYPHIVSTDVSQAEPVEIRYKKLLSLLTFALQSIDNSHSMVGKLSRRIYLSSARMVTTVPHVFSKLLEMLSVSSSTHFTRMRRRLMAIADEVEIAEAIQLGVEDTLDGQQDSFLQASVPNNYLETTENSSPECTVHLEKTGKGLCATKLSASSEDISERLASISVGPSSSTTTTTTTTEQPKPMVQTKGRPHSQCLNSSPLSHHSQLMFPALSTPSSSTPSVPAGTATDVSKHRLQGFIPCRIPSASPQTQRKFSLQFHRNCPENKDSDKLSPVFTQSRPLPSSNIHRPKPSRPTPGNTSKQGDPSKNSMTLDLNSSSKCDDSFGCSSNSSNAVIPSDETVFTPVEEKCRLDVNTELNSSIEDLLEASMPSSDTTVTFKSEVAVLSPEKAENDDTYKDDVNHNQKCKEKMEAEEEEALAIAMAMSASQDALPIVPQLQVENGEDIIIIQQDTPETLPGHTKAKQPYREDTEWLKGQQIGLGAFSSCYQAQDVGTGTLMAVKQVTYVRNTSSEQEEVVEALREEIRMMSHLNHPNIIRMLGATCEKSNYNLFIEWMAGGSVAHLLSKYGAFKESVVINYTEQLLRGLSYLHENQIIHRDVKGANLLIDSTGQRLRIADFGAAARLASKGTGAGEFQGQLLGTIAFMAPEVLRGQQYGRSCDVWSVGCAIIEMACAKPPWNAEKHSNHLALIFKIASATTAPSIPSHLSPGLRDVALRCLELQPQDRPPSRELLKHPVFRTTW

ASK2 = molecular target: T23, ASK2 (Homo sapiens, UniProt O95382); assay: kinome scan; type: binding; details: 10 µM
T23 construct: purchased DiscoverX (KINOMEscan)

With `Nc1ccc(N=Nc2ccccc2)c(N)n1` [phenazopyridine, 2,6-diamino-3-(phenylazo)pyridine] the kinase inhibition [1] was 86, the kinase inhibition (NDR2) was 100 and the kinase inhibition [2] was 96. For the same compound, the kinase inhibition (PIK3CA(Q546K)) was 100, the kinase inhibition (CDC2L5) was 100 and the “kinase bound, % of DMSO control” value (PRP4) was 100. The kinase inhibition (PFCDPK1(P.falciparum)) was 100, the kinase inhibition (PFPK5(P.falciparum)) was 89 and the kinase inhibition (MELK) was 79. The kinase inhibition (IKK-alpha) was 64, the kinase inhibition (LCK) was 96 and the “remaining binding (% of control)” value (FLT1) was 90. For the same compound, the kinase inhibition (ERK1) was 95, the kinase inhibition (SIK) was 100 and the kinase inhibition (CAMK2D) was 88. For the same compound, the kinase inhibition [3] was 48, the “number of LC3B-positive autophagosomes” value (HeLa cells) was “increased” and the kinase inhibition [4] was 67. The kinase inhibition (PRKR) was 86, the kinase inhibition (PAK3) was 99 and the kinase inhibition (PRKCD) was 100. The kinase inhibition (STK16) was 76, the kinase inhibition (MAP3K1) was 100 and the kinase inhibition (ASK2) was 83.
